{"source": "paper PMC10156783", "about": "“Structural basis for catalysis of human choline/ethanolamine phosphotransferase 1” (Nature Communications, 2023)", "molecules": {"B1": {"name": "human choline/ethanolamine phosphotransferase 1 (CEPT1), full length (enzyme, UniProt Q9Y6K0 1-416, looked up)", "chain": "MSGHRSTRKRCGDSHPESPVGFGHMSTTGCVLNKLFQLPTPPLSRHQLKRLEEHRYQSAGRSLLEPLMQGYWEWLVRRVPSWIAPNLITIIGLSINICTTILLVFYCPTATEQAPLWAYIACACGLFIYQSLDAIDGKQARRTNSSSPLGELFDHGCDSLSTVFVVLGTCIAVQLGTNPDWMFFCCFAGTFMFYCAHWQTYVSGTLRFGIIDVTEVQIFIIIMHLLAVIGGPPFWQSMIPVLNIQMKIFPALCTVAGTIFSCTNYFRVIFTGGVGKNGSTIAGTSVLSPFLHIGSVITLAAMIYKKSAVQLFEKHPCLYILTFGFVSAKITNKLVVAHMTKSEMHLHDTAFIGPALLFLDQYFNSFIDEYIVLWIALVFSFFDLIRYCVSVCNQIASHLHIHVFRIKVSTAHSNHH", "notes": "residues 28-407 modelled in each protomer; Homodimer in the cryo-EM structures; membrane protein in GDN detergent; No removal of the tags is described; also called hCEPT1; CEPT1-A; source: FreeStyle 293-F suspension cells, transiently transfected, purified (anti-FLAG M2 resin, NTA resin, SEC in 0.005% GDN)"}}, "key": {"[1]": {"biological_target": "T1, hCEPT1 (human choline/ethanolamine phosphotransferase 1) (Homo sapiens, UniProt Q9Y6K0)", "T1 construct": "gene CEPT1", "T1 sequence (Q9Y6K0 1-416)": "B1 chain", "details": "co-substrate diacylglycerol in cholate/POPC micelles; Mg2+ 20 mM; pH 8.0; 37 °C"}, "[2]": {"biological_target": "T1, hCEPT1 (human choline/ethanolamine phosphotransferase 1)", "assay": "isothermal titration calorimetry; cryo-EM structure of the complex", "details": "read-out: binding affinity"}, "[3]": {"biological_target": "the molecule itself", "assay": "cryo-EM structure; purified CEPT1 at about 15 mg/ml in 25 mM Tris pH 8.0, 150 mM NaCl, 0.005% GDN; alone (3.7 Å) and with 10 mM CDP-choline (3.8 Å); C2 symmetry applied, a similar map with C1"}}}
{"molecule": "NCCOP(=O)(O)OP(=O)(O)OC[C@H]1O[C@@H](n2ccc(N)nc2=O)[C@H](O)[C@@H]1O", "note": "[CDP-ethanolamine]", "values": [{"measurement": "HPLC assay of CMP release", "setting": "[1]", "result": "CMP release was approximately doubled when CDP-choline was used as the substrate compared with CDP-ethanolamine"}]}
{"molecule": "C[N+](C)(C)CCOP(=O)(O)OP(=O)([O-])OC[C@H]1O[C@@H](n2ccc(N)nc2=O)[C@H](O)[C@@H]1O", "note": "[CDP-choline]", "values": [{"measurement": "Kd", "setting": "[2]", "result": 46, "unit": "µM"}]}
{"molecule": "B1", "values": [{"measurement": "stoichiometry N", "setting": "[3]", "result": 2}]}
